Laboratory results reported in patent publication EP4570793A1, “5-HT2A RECEPTOR INVERSE AGONIST, AND PREPARATION METHOD THEREFOR AND USE THEREOF” (Luye Innomind Pharma Shijiazhuang Co., Ltd., priority 2022, dated 2024).
Where two headings read alike, the source gives them in different places.

Columns and labels:
[1] = In-vitro liver microsomal stability (dog); type: in vitro ADME; settings: Dog liver microsomes, 1 µM, 0.5 mg/mL, NADPH
Experimental: (§1) Test Example 3. Evaluation of In-Vitro Liver Microsomal Stability
(§2) • 1) Preparation of test sample working solution: A test sample was diluted to 100 µM with methanol. • 2) Preparation of liver microsome working solution: Liver microsomes were diluted to 0.56 mg/mL with 100 mM phosphate-buffered saline. • 3) Preparation of working solution of reduced nicotinamide adenine dinucleotide phosphate (NADPH): A proper amount of NADPH was weighed out and diluted to 20 mM with phosphate-buffered saline, and then an equal volume of a 60 mM MgCl2 solution was added. • 4) Preparation of stop solution: Tolbutamide was diluted to 20 ng/mL with acetonitrile to serve as a stop solution containing an internal standard.
• 1) Anti-adsorption EP tubes for incubation were prepared and labeled with species, test samples, control samples (testosterone and dextromethorphan), time points (0 min, 5 min, 10 min, 20 min, 30 min, 60 min, Blank60, and NCF60), etc. • 2) 2 µL of test or control sample working solution and 178 µL of liver microsome working solution were added to each tube. For the Blank tube, 2 µL of acetonitrile was added instead of the test sample. The tubes were preincubated in a water bath at 37 °C for about 10 min, with 3 replicates set up for each sample. • 3) After the pre-incubation was completed, 20 µL of NADPH working solution was added to each tube except for the 0 min and NCF60 tubes to start the reaction. For the NCF60 tube, 20 µL of phosphate-buffered saline (containing 30 mM MgCl2) was added. In the incubation system, the final concentration of the test or control sample was 1 µM, the final concentration of liver microsomes was 0.5 mg/mL, the final concentration of NADPH was 1 mM, and the final concentration of MgCl2 was 3 mM. • 4) For the 0 min sample, 600 µL of stop solution was added, followed by the addition of the NADPH working solution. For the other samples, after each of them was incubated for the corresponding time, 600 µL of stop solution was added to stop the reaction. • 5) After the reaction was stopped, each sample was vortexed for 30 s and then centrifuged at 13500 rpm for 10 min. Then, 100 µL of the supernatant was transferred to an EP tube, and 100 µL of Milli-Q water was added. The mixture was well mixed by vortexing and analyzed by LC-MS/MS. • 6) Testosterone and dextromethorphan were used as positive control samples under the same conditions to assess the stability and reliability of the system. […]

[2] = In-vitro liver microsomal stability (human); type: in vitro ADME; settings: Human liver microsomes, 1 µM, 0.5 mg/mL, NADPH
Experimental: as §1, §2
(§3) • 1) Anti-adsorption EP tubes for incubation were prepared and labeled with species, test samples, control samples (testosterone and dextromethorphan), time points (0 min, 5 min, 10 min, 20 min, 30 min, 60 min, Blank60, and NCF60), etc. • 2) 2 µL of test or control sample working solution and 178 µL of liver microsome working solution were added to each tube. For the Blank tube, 2 µL of acetonitrile was added instead of the test sample. The tubes were preincubated in a water bath at 37 °C for about 10 min, with 3 replicates set up for each sample. • 3) After the pre-incubation was completed, 20 µL of NADPH working solution was added to each tube except for the 0 min and NCF60 tubes to start the reaction. For the NCF60 tube, 20 µL of phosphate-buffered saline (containing 30 mM MgCl2) was added. In the incubation system, the final concentration of the test or control sample was 1 µM, the final concentration of liver microsomes was 0.5 mg/mL, the final concentration of NADPH was 1 mM, and the final concentration of MgCl2 was 3 mM. • 4) For the 0 min sample, 600 µL of stop solution was added, followed by the addition of the NADPH working solution. For the other samples, after each of them was incubated for the corresponding time, 600 µL of stop solution was added to stop the reaction. • 5) After the reaction was stopped, each sample was vortexed for 30 s and then centrifuged at 13500 rpm for 10 min. Then, 100 µL of the supernatant was transferred to an EP tube, and 100 µL of Milli-Q water was added. The mixture was well mixed by vortexing and analyzed by LC-MS/MS. • 6) Testosterone and dextromethorphan were used as positive control samples under the same conditions to assess the stability and reliability of the system.
(§4) Table 2: Test data for the compounds of the present disclosure in human and rat liver microsomes

[3] = biological target: 5-HT2A receptor (Homo sapiens, UniProt P28223); test: Assay for 5-HT2A receptor inverse agonist activity (NIH3T3-5-HT2A R cells, Bright-Glo luciferase, cell inhibition rate)
Sequence of 5-HT2A receptor (P28223 whole entry): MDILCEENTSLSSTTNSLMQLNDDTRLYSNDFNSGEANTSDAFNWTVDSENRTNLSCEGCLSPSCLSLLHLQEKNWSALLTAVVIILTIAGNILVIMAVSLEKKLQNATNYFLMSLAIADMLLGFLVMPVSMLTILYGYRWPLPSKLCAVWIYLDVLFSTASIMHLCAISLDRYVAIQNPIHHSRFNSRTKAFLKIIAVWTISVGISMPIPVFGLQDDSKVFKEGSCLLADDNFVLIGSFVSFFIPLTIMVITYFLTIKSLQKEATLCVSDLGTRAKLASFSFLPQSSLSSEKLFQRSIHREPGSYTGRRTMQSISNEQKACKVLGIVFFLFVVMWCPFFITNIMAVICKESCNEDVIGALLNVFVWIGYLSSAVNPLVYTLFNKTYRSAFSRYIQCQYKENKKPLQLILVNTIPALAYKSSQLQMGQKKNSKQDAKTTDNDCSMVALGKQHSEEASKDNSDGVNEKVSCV
Experimental: Assay for 5-HT2A Receptor Inverse Agonist Activity
• Cell line: adherent cells NIH3T3-5-HT2A R • Cell culture medium: DMEM + 10% FBS (purchased from GBICO) • Cell culture plate: 96-well white/clear bottom plate (purchased from Perkin Elmer) • Detection kit: Bright-Glo™ Luciferase (purchased from Promega) • Detection instrument: BioTek multimode microplate reader
NIH3T3-5HT2A R cells in the logarithmic growth phase were seeded into a 96-well white/clear bottom plate at a density of 1000 cells/well and then cultured overnight in an incubator at 37 °C with 5% CO2. […] Duplicate wells were set up for each concentration. […] After the drug addition, the cells were cultured in the incubator at 37 °C with 5% CO2 for another 120 h. On the sixth day, a Bright-Glo™ Luciferase reagent was added to the cells in a volume equal to that of the cell culture medium. The plate was then incubated in the dark at room temperature for 20 min, with the plate shaker vibrating once every 5 min. The luminescence intensity was detected using a microplate reader, and the cell inhibition rate was calculated. Data were processed using GraphPad Prism 7.0 to obtain the cell inhibition rate curve and calculate IC50.

[4] = In-vitro liver microsomal stability (rat); type: in vitro ADME; settings: Rat liver microsomes, 1 µM, 0.5 mg/mL, NADPH
Experimental: as §1, §2, §3, §4

[5] = biological target: hERG potassium channels (Homo sapiens, UniProt Q12809); test: cell-based
Sequence of hERG potassium channels (Q12809 whole entry): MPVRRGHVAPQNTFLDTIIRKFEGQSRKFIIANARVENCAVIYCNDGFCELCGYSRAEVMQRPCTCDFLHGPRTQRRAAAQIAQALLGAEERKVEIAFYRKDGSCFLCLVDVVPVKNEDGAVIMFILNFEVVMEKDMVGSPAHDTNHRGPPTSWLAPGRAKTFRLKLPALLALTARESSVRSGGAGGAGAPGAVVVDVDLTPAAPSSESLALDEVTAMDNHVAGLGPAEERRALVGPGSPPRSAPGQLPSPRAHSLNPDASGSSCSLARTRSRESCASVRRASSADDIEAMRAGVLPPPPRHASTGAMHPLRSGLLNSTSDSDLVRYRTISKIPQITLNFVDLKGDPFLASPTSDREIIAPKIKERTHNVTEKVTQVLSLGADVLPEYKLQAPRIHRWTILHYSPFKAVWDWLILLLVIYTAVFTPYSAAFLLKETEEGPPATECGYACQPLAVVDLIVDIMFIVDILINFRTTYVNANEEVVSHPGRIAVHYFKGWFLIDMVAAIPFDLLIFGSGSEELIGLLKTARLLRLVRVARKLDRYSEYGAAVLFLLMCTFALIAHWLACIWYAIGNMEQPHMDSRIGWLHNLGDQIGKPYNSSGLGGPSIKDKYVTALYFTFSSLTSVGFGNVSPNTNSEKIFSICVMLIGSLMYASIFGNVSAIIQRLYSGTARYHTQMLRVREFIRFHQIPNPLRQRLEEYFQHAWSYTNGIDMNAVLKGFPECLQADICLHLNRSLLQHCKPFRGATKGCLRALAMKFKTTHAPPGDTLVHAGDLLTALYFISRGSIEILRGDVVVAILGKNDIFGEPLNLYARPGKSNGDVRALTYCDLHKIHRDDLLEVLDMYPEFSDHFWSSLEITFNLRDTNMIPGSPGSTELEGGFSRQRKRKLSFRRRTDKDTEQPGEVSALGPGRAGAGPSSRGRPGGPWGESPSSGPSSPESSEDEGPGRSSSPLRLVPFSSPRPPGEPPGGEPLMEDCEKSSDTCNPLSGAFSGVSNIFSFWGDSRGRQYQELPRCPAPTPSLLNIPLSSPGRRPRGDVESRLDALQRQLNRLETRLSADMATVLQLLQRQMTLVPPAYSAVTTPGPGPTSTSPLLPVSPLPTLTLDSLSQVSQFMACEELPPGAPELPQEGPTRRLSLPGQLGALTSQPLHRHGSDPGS
Experimental: • Species & strain: CHO-hERG cell line (Chinese hamster ovary cells stably expressing hERG channels) • Culture medium: 90% F12, 10% fetal bovine serum, 100 µg/mL G418, and 100 µg/mL Hygromycin B • Culture conditions: incubator at 37 °C with 5% CO2 • Cryopreservation condition: liquid nitrogen
On the day of the test, the compound was diluted with DMSO to an intermediate concentration. Then, 10 µL of the intermediate-concentration compound was transferred to 4990 µL of extracellular fluid, achieving a 500-fold dilution to obtain the final concentration to be tested.
hERG potassium channel currents were recorded at room temperature by the whole-cell patch clamp technique in the CHO (Chinese hamster ovary) cells stably expressing hERG potassium channels. Glass microelectrodes were formed by pulling a glass electrode blank (BF150-86-10, Sutter) using a puller. The tip resistance after perfusion of electrode internal solution was about 2-5 MΩ. The glass microelectrodes could be connected to a patch clamp amplifier after being inserted into amplifier probes. The clamping voltage and data recording were controlled and recorded by a computer with a pClamp 10 software, with a sampling frequency of 10 kHz and a filtering frequency of 2 kHz. After achieving the whole-cell recording, the cells were clamped at -80 mV. The step voltage evoking hERG potassium current (IhERG) was changed from -80 mV to +20 mV by applying a 2 s depolarization voltage, followed by repolarization to -50 mV for 1 s, and then returned to -80 mV. This voltage stimulation was applied every 10 s, and after it was determined that the hERG potassium currents were stable (1 min), the administration process was started. Each test concentration of the compound was applied for at least 1 min, and at least 2 cells (n ≥ 2) were tested for each concentration.

[6] = 5-HT2A inverse agonist activity IC50 (nM), NIH3T3-5HT2A R cells, 120 h, luminescence

Compound | Remaining amount% at 60 min [2] [%] | Remaining amount% at 60 min [4] [%] | IC50 [3] [nM] | Remaining amount% at 60 min [1] [%] | IC50 [3, 6] [nM] | IC50 [5] [nM]
CN1CCC(N(Cc2ccc(F)cn2)C(=O)NCc2ccc(OCC(F)(F)F)nc2)C(F)(F)C1 (single isomer, unassigned) [Compound 46A] | 1.21 | – | – | 40.77 | > 1000 | –
CN1CCC(N(Cc2ccc(F)cn2)C(=O)NCc2ccc(OCC(F)(F)F)nc2)C2(CC2)C1 (single isomer, unassigned) [Compound 50A] | 89.7 | 58.8 | – | – | 2.6 | 2200
CN1CCC(N(Cc2ccc(F)cn2)C(=O)NCc2ccc(OCC(F)(F)F)cn2)CC1 [Compound 1] | 85.7 | – | – | 88.7 | 152 | 4930
CN1CCC(N(Cc2ccc(F)cn2)C(=O)NCc2ccc(OCC(F)(F)F)nc2)CC1 [Compound 5] | 99.9 | – | – | 99.8 | 13.1 | –
CN1CCC(N(Cc2ccc(F)cn2)C(=O)NCc2ccc(OC3CC(F)(F)C3)nc2)CC1 [Compound 6] | 90.8 | – | – | 98.8 | 25.4 | –
CN1CCC(N(Cc2ccc(F)cn2)C(=O)NCc2ccc3[nH]ccc3c2)CC1 [Compound 9] | 93.1 | – | – | 45.3 | 28.2 | 3120
CN1CCC(N(Cc2ccc(F)cn2)C(=O)NCc2ccc3ncccc3c2)CC1 [Compound 10] | 71.9 | – | – | 58.6 | 29.6 | 3860
CN1CCC(N(Cc2ccc(F)cn2)C(=O)NCc2cnc(OCC(F)(F)F)c(Cl)c2)CC1 [Compound 27] | 50.93 | 63.98 | – | – | – | > 30000
CN1CCC(N(Cc2ccc(F)cn2)C(=O)NCc2cnc(OCC(F)(F)F)c(Br)c2)CC1 [Compound 28] | 38.94 | 54.78 | – | – | – | > 30000
CN1CC[C@@H](N(Cc2ccc(F)cn2)C(=O)NCc2ccc(OCC(F)(F)F)nc2)[C@H](F)C1 [Compound 67] | 66.2 | – | > 1000 | 81.4 | – | –

Continued, in another order:

Remaining amount% at 60 min [2] [%] | Remaining amount% at 60 min [4] [%] | IC50 [3] [nM] | Compound | Remaining amount% at 60 min [1] [%] | IC50 [3, 6] [nM] | IC50 [5] [nM]
79.7 | – | 72.8 | CN1CCC(N(Cc2ccc(F)cn2)C(=O)NCc2ccc(OC3CC3)cn2)CC1 [Compound 2] | 76.7 | – | –
94.1 | – | 149 | CN1CCC(N(Cc2ccc(F)cn2)C(=O)NCc2ccc(OCC3CC3)cn2)CC1 [Compound 3] | 100.0 | – | –
77.06 | 69.21 | 163 | CN1CCC(N(Cc2ccc(F)cn2)C(=O)NCc2ccc3c(ccn3C)c2)CC1 [Compound 12] | – | – | 2220
72.49 | – | 33.1 | CN1CCC(N(Cc2ccc(F)cn2)C(=O)NCc2cnc(OC3CC(F)(F)C3)c(F)c2)CC1 [Compound 19] | 78.39 | – | –
73.7 | – | 22.7 | CN1CC[C@H](N(Cc2ccc(F)cn2)C(=O)NCc2ccc(OCC(F)(F)F)nc2)[C@@H](F)C1 [Compound 66] | 85.1 | – | 2990
70.7 | – | – | CC(C)COc1ccc(CNC(=O)N(Cc2ccc(F)cc2)C2CCN(C)CC2)cc1 [Pimavanserin, reference compound] | 68.5 | – | –
